According to PubChem BioAssay (NCI):
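Where inhibition never reached the appropriate level, the endpoint shown equals the highest concentration tested. Otherwise, values were interpolated linearly from a five-concentration, 48-hour dose response in 96-well plates. GI50 marks 50% less growth. TGI denotes the concentration required for complete inhibition of growth.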

Tests used:
Assay in all cases: NCI anticancer screen, dose series, 48 h
NCI/ADR-RES ovarian = test system: NCI/ADR-RES ovarian
T-47D breast = test system: T-47D breast
A498 renal = test system: A498 renal
786-0 renal = test system: 786-0 renal
SK-OV-3 ovarian = test system: SK-OV-3 ovarian
MOLT-4 leukemia = test system: MOLT-4 leukemia
SK-MEL-28 melanoma = test system: SK-MEL-28 melanoma
HOP-62 NSCLC = test system: HOP-62 NSCLC
CAKI-1 renal = test system: CAKI-1 renal
SF-539 CNS = test system: SF-539 CNS
RXF 393 renal = test system: RXF 393 renal
UACC-257 melanoma = test system: UACC-257 melanoma
SNB-19 CNS = test system: SNB-19 CNS
SF-268 CNS = test system: SF-268 CNS
COLO 205 colon = test system: COLO 205 colon
HS 578T breast = test system: HS 578T breast
HT29 colon = test system: HT29 colon
U251 CNS = test system: U251 CNS
NCI-H23 lung = test system: NCI-H23 lung
SNB-75 CNS = test system: SNB-75 CNS
ACHN renal = test system: ACHN renal
OVCAR-5 ovarian = test system: OVCAR-5 ovarian
K-562 leukemia = test system: K-562 leukemia
HCT-116 colon = test system: HCT-116 colon
RPMI-8226 leukemia = test system: RPMI-8226 leukemia
MDA-MB-435 = test system: MDA-MB-435
HCC-2998 colon = test system: HCC-2998 colon
SR leukemia = test system: SR leukemia
M14 melanoma = test system: M14 melanoma
BT-549 breast = test system: BT-549 breast
CCRF-CEM leukemia = test system: CCRF-CEM leukemia
UO-31 renal = test system: UO-31 renal
IGROV1 ovarian = test system: IGROV1 ovarian
SK-MEL-2 melanoma = test system: SK-MEL-2 melanoma
HL-60(TB) leukemia = test system: HL-60(TB) leukemia
OVCAR-8 ovarian = test system: OVCAR-8 ovarian
SW-620 colon = test system: SW-620 colon
SF-295 CNS = test system: SF-295 CNS
UACC-62 melanoma = test system: UACC-62 melanoma
NCI-H226 lung = test system: NCI-H226 lung
MDA-MB-231 breast = test system: MDA-MB-231 breast
NCI-H460 lung = test system: NCI-H460 lung
OVCAR-4 ovarian = test system: OVCAR-4 ovarian
MCF7 breast = test system: MCF7 breast
HCT-15 colon = test system: HCT-15 colon
HOP-92 NSCLC = test system: HOP-92 NSCLC
PC-3 prostate = test system: PC-3 prostate
TK-10 renal = test system: TK-10 renal
KM12 colon = test system: KM12 colon
LOX IMVI melanoma = test system: LOX IMVI melanoma
DU-145 prostate = test system: DU-145 prostate
NCI-H522 lung = test system: NCI-H522 lung
SK-MEL-5 melanoma = test system: SK-MEL-5 melanoma
A549 NSCLC = test system: A549 NSCLC
SN12C renal = test system: SN12C renal
MALME-3M melanoma = test system: MALME-3M melanoma
EKVX NSCLC = test system: EKVX NSCLC
OVCAR-3 ovarian = test system: OVCAR-3 ovarian

CCOC(=O)C(NC(=O)Nc1ccc(C)cc1)(OCC)C(F)(F)F (centres undefined)
TGI (NCI/ADR-RES ovarian): > 100 µM | TGI (T-47D breast): > 100 µM | TGI (A498 renal): > 100 µM | TGI (786-0 renal): > 100 µM | TGI (SK-OV-3 ovarian): > 100 µM | TGI (MOLT-4 leukemia): > 100 µM | TGI (SK-MEL-28 melanoma): > 100 µM | TGI (HOP-62 NSCLC): > 100 µM | TGI (CAKI-1 renal): > 100 µM | TGI (SF-539 CNS): > 100 µM | TGI (RXF 393 renal): > 100 µM | TGI (UACC-257 melanoma): > 100 µM | TGI (SNB-19 CNS): > 100 µM | TGI (SF-268 CNS): > 100 µM | TGI (COLO 205 colon): > 100 µM | TGI (HS 578T breast): > 100 µM | TGI (HT29 colon): > 100 µM | TGI (U251 CNS): > 100 µM | TGI (NCI-H23 lung): > 100 µM | TGI (SNB-75 CNS): > 100 µM | TGI (ACHN renal): > 100 µM | TGI (OVCAR-5 ovarian): > 100 µM | TGI (K-562 leukemia): > 100 µM | TGI (HCT-116 colon): > 100 µM | TGI (RPMI-8226 leukemia): > 100 µM | TGI (MDA-MB-435): > 100 µM | TGI (HCC-2998 colon): > 100 µM | TGI (SR leukemia): > 100 µM | TGI (M14 melanoma): > 100 µM | TGI (BT-549 breast): > 100 µM | TGI (CCRF-CEM leukemia): > 100 µM | TGI (UO-31 renal): > 100 µM | TGI (IGROV1 ovarian): > 100 µM | TGI (SK-MEL-2 melanoma): > 100 µM | TGI (HL-60(TB) leukemia): > 100 µM

CCCOC(=O)N[C@H]1CCc2c(Cl)c(OC)c(OC)c(OC)c2-c2ccc(SC)c(=O)cc21
GI50 (NCI/ADR-RES ovarian): 0.0269 µM | TGI (NCI/ADR-RES ovarian): 21.6 µM | GI50 (A498 renal): < 0.01 µM | TGI (A498 renal): < 0.01 µM | GI50 (786-0 renal): < 0.0174 µM | TGI (786-0 renal): 21.5 µM | GI50 (MOLT-4 leukemia): < 0.01 µM | TGI (MOLT-4 leukemia): 23.6 µM | GI50 (OVCAR-8 ovarian): < 0.0122 µM | TGI (OVCAR-8 ovarian): > 100 µM | GI50 (SK-MEL-28 melanoma): 2.02 µM | TGI (SK-MEL-28 melanoma): 23.5 µM | GI50 (HOP-62 NSCLC): 0.0101 µM | TGI (HOP-62 NSCLC): 50.9 µM | GI50 (CAKI-1 renal): < 0.0226 µM | TGI (CAKI-1 renal): 14.1 µM | GI50 (SW-620 colon): < 0.01 µM | TGI (SW-620 colon): > 52.5 µM | GI50 (SF-295 CNS): < 0.01 µM | GI50 (UACC-62 melanoma): < 0.01 µM | TGI (UACC-62 melanoma): 13.8 µM | GI50 (SF-539 CNS): < 0.01 µM | TGI (SF-539 CNS): < 0.0356 µM | GI50 (NCI-H226 lung): < 0.01 µM | TGI (NCI-H226 lung): 12.5 µM | GI50 (MDA-MB-231 breast): < 0.01 µM | TGI (MDA-MB-231 breast): 4.71 µM | GI50 (NCI-H460 lung): < 0.0112 µM | TGI (NCI-H460 lung): 0.944 µM | GI50 (RXF 393 renal): < 0.01 µM | TGI (RXF 393 renal): 8.41 µM | GI50 (UACC-257 melanoma): 7.46 µM | TGI (UACC-257 melanoma): 37.5 µM | GI50 (SNB-19 CNS): < 0.01 µM | TGI (SNB-19 CNS): 27.4 µM | GI50 (OVCAR-4 ovarian): < 0.012 µM | TGI (OVCAR-4 ovarian): > 100 µM | GI50 (MCF7 breast): < 0.01 µM | TGI (MCF7 breast): 13.1 µM | GI50 (HCT-15 colon): < 0.01 µM | TGI (HCT-15 colon): 16.6 µM | GI50 (HOP-92 NSCLC): < 0.0119 µM | TGI (HOP-92 NSCLC): 4.65 µM | GI50 (PC-3 prostate): < 0.01 µM | TGI (PC-3 prostate): > 100 µM | GI50 (SF-268 CNS): < 0.0117 µM | TGI (SF-268 CNS): 17.4 µM | GI50 (HS 578T breast): < 0.01 µM | TGI (HS 578T breast): 20.6 µM | GI50 (HT29 colon): < 0.01 µM | TGI (HT29 colon): 37.6 µM | GI50 (U251 CNS): < 0.01 µM | TGI (U251 CNS): 12.2 µM | GI50 (NCI-H23 lung): < 0.01 µM | TGI (NCI-H23 lung): 32.5 µM | GI50 (TK-10 renal): 5.04 µM | TGI (TK-10 renal): > 88.4 µM | GI50 (KM12 colon): < 0.01 µM | TGI (KM12 colon): 1.63 µM | GI50 (SNB-75 CNS): < 0.01 µM | TGI (SNB-75 CNS): 14.5 µM | GI50 (LOX IMVI melanoma): < 0.01 µM | TGI (LOX IMVI melanoma): 13 µM | GI50 (DU-145 prostate): < 0.01 µM | TGI (DU-145 prostate): 0.0575 µM | GI50 (ACHN renal): < 0.01 µM | TGI (ACHN renal): 23.6 µM | GI50 (OVCAR-5 ovarian): < 0.013 µM | TGI (OVCAR-5 ovarian): > 76.7 µM | GI50 (K-562 leukemia): < 0.01 µM | TGI (K-562 leukemia): > 100 µM | GI50 (NCI-H522 lung): < 0.01 µM | TGI (NCI-H522 lung): 0.271 µM | GI50 (HCT-116 colon): < 0.01 µM | TGI (HCT-116 colon): 12.7 µM | GI50 (RPMI-8226 leukemia): < 0.01 µM | TGI (RPMI-8226 leukemia): 7.73 µM | GI50 (SK-MEL-5 melanoma): < 0.01 µM | TGI (SK-MEL-5 melanoma): 0.0207 µM | GI50 (A549 NSCLC): < 0.0153 µM | TGI (A549 NSCLC): > 100 µM | GI50 (SN12C renal): < 0.0123 µM | TGI (SN12C renal): 13.6 µM | GI50 (MDA-MB-435): < 0.01 µM | TGI (MDA-MB-435): < 0.01 µM | GI50 (HCC-2998 colon): < 0.0112 µM | TGI (HCC-2998 colon): 0.7 µM | GI50 (SR leukemia): < 0.01 µM | TGI (SR leukemia): 19.2 µM | GI50 (M14 melanoma): < 0.01 µM | TGI (M14 melanoma): 4.47 µM | GI50 (BT-549 breast): < 0.01 µM | TGI (BT-549 breast): 6.01 µM | GI50 (MALME-3M melanoma): < 0.01 µM | TGI (MALME-3M melanoma): 17.1 µM | GI50 (CCRF-CEM leukemia): < 0.01 µM | TGI (CCRF-CEM leukemia): > 100 µM | GI50 (EKVX NSCLC): < 0.01 µM | TGI (EKVX NSCLC): > 100 µM | GI50 (UO-31 renal): 0.0747 µM | TGI (UO-31 renal): 27.9 µM | GI50 (IGROV1 ovarian): < 0.01 µM | TGI (IGROV1 ovarian): > 65.6 µM | GI50 (OVCAR-3 ovarian): < 0.01 µM | TGI (OVCAR-3 ovarian): < 0.01 µM | GI50 (SK-MEL-2 melanoma): 1.88 µM | TGI (SK-MEL-2 melanoma): 29.9 µM | GI50 (HL-60(TB) leukemia): < 0.01 µM | TGI (HL-60(TB) leukemia): < 0.01 µM
